Measurements reported in patent US20260308149A1, “NOVEL CARBOXAMIDE DERIVATIVES” (ANGELINI PHARMA S.P.A., priority 2023, published 2026).

Tests used:
human Kv7.2 = target: T1, human Kv7.2 (Homo sapiens, UniProt O43526); assay: activation (potentiation) of Kv7.2 current, SyncroPatch 384 electrophysiology in CHO cells stably expressing human Kv7.2; format: cell-based; conditions: human Kv7.2 in CHO cells; in presence of 5.6 μM zinc pyrithione; % activation relative to 30 μM ML-213
T1 construct: expressed in transfected cells
T1 sequence (O43526 whole entry): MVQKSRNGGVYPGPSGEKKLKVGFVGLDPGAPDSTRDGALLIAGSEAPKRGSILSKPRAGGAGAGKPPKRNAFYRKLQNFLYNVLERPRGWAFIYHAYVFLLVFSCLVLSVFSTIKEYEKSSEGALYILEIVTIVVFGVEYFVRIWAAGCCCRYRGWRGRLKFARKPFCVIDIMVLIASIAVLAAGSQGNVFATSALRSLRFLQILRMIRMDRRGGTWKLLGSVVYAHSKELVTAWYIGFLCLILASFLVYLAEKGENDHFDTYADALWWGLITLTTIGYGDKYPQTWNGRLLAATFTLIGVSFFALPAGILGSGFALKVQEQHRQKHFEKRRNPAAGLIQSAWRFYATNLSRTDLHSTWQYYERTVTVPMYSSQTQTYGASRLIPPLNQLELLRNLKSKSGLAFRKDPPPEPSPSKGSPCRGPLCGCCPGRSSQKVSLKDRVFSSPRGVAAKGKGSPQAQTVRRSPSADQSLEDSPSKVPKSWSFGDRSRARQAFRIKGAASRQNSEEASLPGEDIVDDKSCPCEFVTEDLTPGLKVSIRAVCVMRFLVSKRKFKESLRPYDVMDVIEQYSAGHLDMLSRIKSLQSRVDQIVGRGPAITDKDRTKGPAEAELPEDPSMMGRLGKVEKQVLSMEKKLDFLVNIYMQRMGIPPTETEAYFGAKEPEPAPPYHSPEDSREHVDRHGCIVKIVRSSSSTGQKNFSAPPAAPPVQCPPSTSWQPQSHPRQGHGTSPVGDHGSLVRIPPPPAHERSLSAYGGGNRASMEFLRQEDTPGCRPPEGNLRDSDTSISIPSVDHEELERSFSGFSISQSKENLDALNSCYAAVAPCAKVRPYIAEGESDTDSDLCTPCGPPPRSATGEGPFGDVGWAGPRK
Summary of the method: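 CHO cells stably expressing human Kv7.2 were recorded by automated patch clamp, holding at −60 mV with steps to −30, 40 and −90 mV; current was read at the −90 mV step. Compounds were added after 5.6 μM zinc pyrithione pre-activation. % activation was normalised between 30 μM ML-213 (max) and TEA+XE-991 (leak), with EC50 from a logistic fit.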

[1] = test system: Dup15q patient-derived induced pluripotent cells; conditions: Fink et al., 2018; cited from earlier work
patients = conditions: MDD patients; Tan et al., 2018; cited from earlier work
pain models = conditions: Korsgaard et al., 2005; Xu et al., 2010; Wu et al., 2017; cited from earlier work
spreading depression = conditions: Aiba and Noebels, 2021; cited from earlier work
[2] = test system: preclinical models of tinnitus; conditions: Li, Choi and Tzounopoulos, 2013; cited from earlier work
[3] = test system: Patient-derived motor neurons; conditions: ALS patient-derived motor neurons; Wainger et al., 2014; cited from earlier work
ALS patients = conditions: clinical trials in ALS; Wainger et al., 2021; cited from earlier work
peripheral neuropathy = conditions: preclinical; Nodera et al., 2011; cited from earlier work

Cc1ccc(C2CC2C(=O)NC[C@@]2(c3cccc(C#N)c3)CCO2)o1 (stereo partly drawn) [Example 133, N-[[(2S)-2-(3-cyanophenyl)oxetan-2-yl]methyl]-2-(5-methyl-2-furyl)cyclopropanecarboxamide]
EC50 (human Kv7.2): 500 nM

N#Cc1cccc([C@]2(CNC(=O)C3CC3n3cccc3)CCO2)c1 (stereo partly drawn) [Example 135, N-[[(2S)-2-(3-cyanophenyl)oxetan-2-yl]methyl]-2-pyrrol-1-yl-cyclopropanecarboxamide]
EC50 (human Kv7.2): 1140 nM

N#Cc1cccc([C@]2(CNC(=O)C3CC3C3CCC(F)(F)CC3)CCO2)c1 (stereo partly drawn) [Example 136, N-[[(2S)-2-(3-cyanophenyl)oxetan-2-yl]methyl]-2-(4,4-difluorocyclohexyl)cyclopropanecarboxamide]
EC50 (human Kv7.2): 400 nM

CCOC(=O)Nc1ccc(NCc2ccc(F)cc2)cc1N [Retigabine]
effect on phenotype [1]: partially corrects their phenotype | antidepressant efficacy (patients): showed antidepressant efficacy in patients | reduction in depressive symptoms (patients): significant reduction in depressive symptoms | efficacy in preclinical pain models (pain models): some efficacy in preclinical pain models | efficacy in controlling spreading depression (spreading depression): shows efficacy in controlling spreading depression | prevention of the development of tinnitus [2]: prevents the development of tinnitus in preclinical models | rescue of membrane hyperexcitability phenotype [3]: rescues the phenotype | efficacy on functional biomarkers of ALS (ALS patients): showed efficacy on functional biomarkers of ALS | protection against peripheral neuropathy (peripheral neuropathy): protects against peripheral neuropathy
